Non-standard residues stand in square brackets, D forms with d. No end group written: not given here. Cit = NC(=O)NCCC[C@H](N)C(=O)O; {NH2} = amino modification
Assays:
[1] = system: NZB/W F1 mice; assay: SLE mice study, SLEDAI; assay type: in vivo; settings: 2 weeks of treatment and 2 weeks after
Experimental: […]1 in 1×PBS was administered by IV in the tail vain every 12 h over 2 weeks, at a conjugate dosage of 160 μg/kg animal weight for 10 nM concentration. 30 mice were tested; 80% were female; average age 20 week; average weight/median 20.2 g (18.4 g-23.1 g). […] (HQ) was used as control, PO, 2 mg/kg, every 24 h over 2 weeks.

[2] = system: NZB/W mice; assay: In vivo mice assay, disease activity index (DAI); settings: control treatment, same regimen
Experimental: For the further in vivo test, a well-described mice model was selected: NZB/W mice, these have been used as a model for autoimmune disease since the early 1960s. Mice of this hybrid cross develop an autoimmune disease resembling human SLE. Nine-week-old NZB/W mice were kindly provided by […] group, Statens Serum Institute, Denmark; they were grown and tested for the presence of anti-dsDNA antibodies as described in example 6. […] Two mice were used for each conjugate. Mice received IV conjugate/control administration (same amount each time), with 12 h intervals for 5 days, and afterwards giving the same dose with 3 day interval over 3 weeks. […] Administration regimen for same as for nanoconjugate complexes: IV in tail vein with 12 h interval for 5 days, and afterwards giving the same dose with 3 day interval. Blood samples were withdrawn at time points: 24 h, 48 h, 1 week, 4 weeks after the beginning of each treatment. Plasma was centrifuged using Qiagen blood storage tubes and stored at -20° C. prior to analyses. ELISA analysis was performed using manufacturer's protocols in sera dilution 1:100 to 1:500. […] At early time points 10 nM conjugate works better than 1 nM.

[3] = system: autoantibodies in plasma of RA patients, SLE and healthy controls; assay: ELISA testing of PEP2 and PEP2-nanoconjugates; assay type: binding, human; settings: 30 individuals
Experimental: Prior to ELISA, total amount of protein in each sample was estimated by Bradford method using standard curve of BSA control at known concentration (BioRad). In a maxisorb 96 well plate controls (BSA standard samples at concentrations 2 mg/mL, 1 mg/mL, 0.5 mg/mL and 0.1 mg/mL) and plasma sample were mixed with a Bradford reagent following manufacturer's protocol (BioRad). Plasma samples were used in dilution 1:100. Resulting absorbances at 595 nm were measured on Magellan Tecan microplate reader. Total amount of protein was calculated using standard curve.
ELISA: Maxisorb 96 well plates (NUNC Thermofisher) were coated with nanoparticle antigens/controls at concentration 8 μg/mL in 1×PBS overnight (room temperature; 100 μl/well). After washing with 1×PT (2×300 μl/well, PT: 50 μl Tween-20 in 1 L 1×PBS), the plates were blocked with 1×PTB (1 h, 37° C.; 100 μl/well, PTB: 20 g BSA, 50 μl Tween-20 in 1 L 1×PBS). Incubation with plasma at desired dilution was performed at room temperature for 1.5 h using diluent: 2 g BSA, 50 μl Tween-20 in 1 L 1×PBS (100 μl/well). This was followed by washing (2×300 μl 1×PBS) and incubation with HPR-labelled secondary antibody for 1.5 h at room temperature using same diluent and dilution of the secondary antibody provided by supplier (HPR-conjugated a-aIgG; Sigma). Subsequent washing (2×300 μl PT) and incubation with freshly prepared TMB-H2O2 solution (Sigma; 100 μl/well) was followed by adding a stop solution (1M H2SO4; 50 μl/well) and reading resulting absorbance values at 450 nm on Magellan Tecan microplate reader. Linear range for each antigen was determined via testing series of control dilutions (SLE and healthy controls in dilutions 1:50 to 1:2000). According to the results plasma dilutions 1:100-1:500 were within linear range of the assay for each antigen (R2>0.95).

[4] = system: ACPA in RA sera (vs healthy controls and SLE); assay: ELISA screening of citrullinated peptide library; assay type: binding, human
From the text: Citrullinated peptide antigens PEP1-PEP25 (SEQ ID No 9-33) (free amine and carboxy-termini) have been purchased from CALSO, Copenhagen, Denmark, and screened in ELISA of a cohort of 30 RA patients, 30 matched healthy controls and 30 patients with systemic lupus erythematosus. Overall, 16 peptide antigens […], from all the three groups, recognised RA sera.

[5] = system: purified SLE-antibodies; assay: ELISA selectivity of antigens D7 and D8 for purified SLE antibodies; assay type: binding; settings: vs control samples comprising other antibodies
Experimental: SLE antibodies from sera were captured by affinity chromatography using NHS-sepharose and modified antigens as specified in table 9. […] Sera was pre-treated with CaCl2)/dextran to remove lipoproteins prior to applying to column. Sera sample was added to column; incubated for 4 min; washed at 0.5 ml/min flow rate with 20 mM PBS, 5 column volumes; and finally SLE antibodies were eluted with 3 column volumes of 100 mM glycine-HCl, 10% dioxane pH 2.5-3.
Standard ELISA was used to test the selectivity of D7 and D8. ELISA plates comprising antigens D7 and D8, respectively, were tested for their ability to specifically bind the purified SLE-antibodies compared to control samples comprising other antibodies.

[6] = Scanning electron microscopy, nanoparticle size; assay type: physicochemical; settings: SEM
Experimental: Nanosight experiment: Nanosight measurement was done in Jang lab, DTU, using Nano sight equipment NTA Version: NTA 3.1 Build 3.1.46 with Script SOP Standard Measurement 03-47-19PM 20D. The cell of the equipment must be cleaned and unscrewed totally by ethanol and Millipore water. 500 μL diluted sample was injected three times for three run and the concentration of Nanoparticles was adjusted using water pH 6 if the concentration of samples doesn't fit the analysis. The size distribution data and the size with maximum number of particles were recorded, see FIG. 10.
Scanning Electron Microscopy (SEM): The morphology of the Chitosan nanoparticles (NP) was investigated using a Quanta FEG 3D scanning electron microscope (SEM). Samples were attached on metal stubs with double-sided adhesive carbon tape and coated with 6 nm of gold for better conductivity using a sputter coater (Leica Coater ACE 200). The average NP diameter was calculated using image J analysis software (National Institutes of Health, MD, USA) measured at different NP for each image.

Compound	Positive individuals, %: Disease control SLE [3]	Positive individuals, %: Healthy [3]	Positive individuals, %: Patients with RA [3]	Positive individuals, n: Disease control SLE [3]	Positive individuals, n: Healthy [3]	Positive individuals, n: Patients with RA [3]	Average nanoparticle size [6]	other results
Oc1ccc(O)cc1 [HQ, Hydroquinone]	–	–	–	–	–	–	–	SLEDAI (SLE disease activity index), course [1]: reduces SLEDAI faster; however the disease flares after day 17 in treatment
Gentamicin [reference compound]	–	–	–	–	–	–	–	Effect on DAI [2]: only a short term drop in DAI
HHP GIA EFP S(Cit)G KSY SYS KQF (HHPGIAEFPS[Cit]GKSYSYSKQF) [PEP2]	(7) %	(0) %	(57) %	2	0	17	–	Binding in RA samples (share of patients) ([4]; 30 RA patients): 57%; Binding in healthy controls (share) ([4]; 30 matched healthy controls): 0%; Binding in SLE (share of patients) ([4]; 30 patients with systemic lupus erythematosus): 7%
NH2-(TCCT)6:(AGGA)6 (TCCTTCCTTCCTTCCTTCCTTCCT; DNA, 5' {NH2}, backbone and methylation of C not given here; further chemistry not fully specified) [Conjugate D8, Pre-annealed amino-modified duplex antigen]	–	–	–	–	–	–	–	Selectivity for SLE antibodies [5]: selective for SLE antibodies
NP1: Chitosan/Hyaluronic acid/PEG/PEP2 nanoconjugate, presumably covalent attachment of peptide via PEG to CS/HA (HHPGIAEFPS[Cit]GKSYSYSKQF; ends and bridges not checked; also: presumably covalently attached via PEG to chitosan/hyaluronic acid nanoconjugate)	(7) %	(3) %	(57) %	2	1	17	100-300 nm	–
NP2: Chitosan/Hyaluronic acid/PEG/PEP2 nanoconjugate, presumably non-covalent attachment of peptide to CS/HA (HHPGIAEFPS[Cit]GKSYSYSKQF; ends and bridges not checked; also: presumably non-covalently loaded in chitosan/hyaluronic acid/PEG nanoconjugate)	(7) %	(7) %	(53) %	2	2	16	520 nm	–
